Laboratory results from patent publication US20050096278A1, “Antibacterial agents” (priority 2003, published 2005).
In brackets after ≈: the same amount, converted by molar mass.

Experiments:
S. aureus UC-76 = assay: Antibacterial assay (standard microtitration), MIC; format: cell-based; conditions: Table 1B; for MIC: Staphylococcus aureus, UC76, Gram Positive Bacteria, read-out: Minimum Inhibitory Concentrations, S. aureus UC-76; for Minimum Inhibitory Concentrations, S. aureus UC-76: Gram Positive Bacteria
Protocol: (§1) Test A—Antibacterial Assays
(§2) The compounds of the present invention were tested against an assortment of Gram-negative and Gram-positive organisms using standard microtitration techniques (Cohen et. al., Antimicrob., 1985;28:766; Heifetz, et. al., Antimicrob., 1974;6:124). The results of the evaluation are shown in Tables 1A and B. In the tables, “—” means no data.

S pyogenes C203 = assay: Antibacterial assay (standard microtitration), MIC; format: cell-based; conditions: Gram Positive Bacteria, Table 1B; for MIC: read-out: Minimum Inhibitory Concentrations, S pyogenes C203
Protocol: as §1, §2

E. faecalis MGH-2 = assay: Antibacterial assay (standard microtitration), MIC; format: cell-based; conditions: Gram Positive Bacteria, Table 1B; for MIC: Enterococcus faecalis, MGH2, read-out: Minimum Inhibitory Concentrations, E. faecalis MGH-2
Protocol: as §1, §2

H. influenzae HI-3542 = assay: Antibacterial assay (standard microtitration), MIC; format: cell-based; conditions: Gram Negative Bacteria, Table 1A; for MIC: Haemophilus influenzae, HI3542, read-out: Minimum Inhibitory Concentrations, H. influenzae HI-3542
Protocol: as §1, §2

E. coli MC4100 = assay: Antibacterial assay (standard microtitration), MIC; format: cell-based; conditions: Gram Negative Bacteria, Table 1A; for MIC: Escherichia coli, MC4100, read-out: Minimum Inhibitory Concentrations, E. coli MC4100
Protocol: as §1, §2

M. catarrhalis BC-3531 = assay: Antibacterial assay (standard microtitration), MIC; format: cell-based; conditions: Moraxella catarrhalis, BC3531; Gram Negative Bacteria; Table 1A; read-out: Minimum Inhibitory Concentrations, M. catarrhalis BC-3531
Protocol: as §1, §2

SMILES | MIC (S. aureus UC-76) [µg/mL] | MIC (S pyogenes C203) [µg/mL] | MIC (E. faecalis MGH-2) [µg/mL] | MIC (H. influenzae HI-3542) [µg/mL] | MIC (E. coli MC4100) [µg/mL] | MIC (M. catarrhalis BC-3531) [µg/mL] | also measured
COc1c(N2CCC(O)(CO)CC2)c(F)cc2c(=O)c(C(=O)O)cn(C3CC3)c12 |  |  |  |  |  |  | melting point: 200 to 210 °C (dec.)
COc1c(N2CCC(O)C(CO)C2)c(F)cc2c(=O)c(C(=O)O)cn(C3CC3)c12 (centres unmarked) |  |  |  |  |  |  | melting point: 115 to 125 °C
COc1c(N2CCC(C(O)CO)CC2)c(F)cc2c(=O)c(C(=O)O)cn(C3CC3)c12 (centres unmarked) |  |  |  |  |  |  | melting point: 200 to 204 °C
COc1c(N2CCC(C(O)CCO)CC2)c(F)cc2c(=O)c(C(=O)O)cn(C3CC3)c12 (centres unmarked) |  |  |  |  |  |  | melting point: 210 to 214 °C
Cc1c(N2CCC(O)C(CO)C2)c(F)cc2c(=O)c(C(=O)O)cn(C3CC3)c12 (centres unmarked) | 0.015 (≈ 0.0384 µM) | 0.25 (≈ 0.64 µM) | 0.25 (≈ 0.64 µM) |  |  |  | 
COc1c(N2CCC(CCO)CC2)c(F)cc2c(=O)c(C(=O)O)cn(C3CC3)c12 | 0.015 (≈ 0.0371 µM) | 0.25 (≈ 0.618 µM) | 0.125 (≈ 0.309 µM) |  |  |  | 
COc1c(N2CCC(O)C(CO)C2)c(F)cc2c(=O)c(C(=O)O)cn(C3CC3)c12 (centres unmarked) [drawing 324] |  |  |  | 0.015 (≈ 0.0369 µM) | 0.25 (≈ 0.615 µM) | 0.125 (≈ 0.308 µM) | 
COc1c(N2CCC3(CC2)OCCO3)c(F)cc2c(=O)c(C(=O)O)cn(C3CC3)c12 [drawing 325] |  |  |  | 0.06 (≈ 0.143 µM) | 0.5 (≈ 1.19 µM) | 0.06 (≈ 0.143 µM) | 
Cc1c(N2CCC(CCO)CC2)c(F)cc2c(=O)c(C(=O)O)cn(C3CC3)c12 [drawing 326] |  |  |  | 0.03 (≈ 0.0772 µM) | 0.06 (≈ 0.154 µM) | 0.015 (≈ 0.0386 µM) | 
COc1c(N2CCC(C(O)CO)CC2)c(F)cc2c(=O)c(C(=O)O)cn(C3CC3)c12 (centres unmarked) [drawing 327] |  |  |  | 0.03 (≈ 0.0714 µM) | 0.125 (≈ 0.297 µM) | 0.06 (≈ 0.143 µM) | 
COc1c(N2CCC(O)(CO)CC2)c(F)cc2c(=O)c(C(=O)O)cn(C3CC3)c12 [drawing 328] |  |  |  | 0.015 (≈ 0.0369 µM) | 0.25 (≈ 0.615 µM) | 0.125 (≈ 0.308 µM) | 
COc1c(N2CCC(CO)CC2)c(F)cc2c(=O)c(C(=O)O)cn(C3CC3)c12 [drawing 329] |  |  |  | 0.015 (≈ 0.0384 µM) | 0.125 (≈ 0.32 µM) | 0.015 (≈ 0.0384 µM) | 
Cc1c(N2CCC(O)C(C)(C)C2)c(F)cc2c(=O)c(C(=O)O)cn(C3CC3)c12 (centres unmarked) [drawing 330] |  |  |  | 0.125 (≈ 0.322 µM) | 2 (≈ 5.15 µM) | 0.5 (≈ 1.29 µM) | 
COc1c(N2CCC(O)C(C)(C)C2)c(F)cc2c(=O)c(C(=O)O)cn(C3CC3)c12 (centres unmarked) [drawing 331] |  |  |  | 0.125 (≈ 0.309 µM) | 0.25 (≈ 0.618 µM) | 0.125 (≈ 0.309 µM) | 
COc1c(N2CCC(O)C(C)C2)c(F)cc2c(=O)c(C(=O)O)cn(C3CC3)c12 (centres unmarked) [drawing 332] |  |  |  | 0.03 (≈ 0.0768 µM) | 0.25 (≈ 0.64 µM) | 0.03 (≈ 0.0768 µM) | 
COc1c(N2CCC(O)(c3ccccc3)CC2)c(F)cc2c(=O)c(C(=O)O)cn(C3CC3)c12 [drawing 333] |  |  |  | 2 (≈ 4.42 µM) | 32 (≈ 70.7 µM) | 1 (≈ 2.21 µM) | 
COc1c(N2CCCC(C(O)CO)C2)c(F)cc2c(=O)c(C(=O)O)cn(C3CC3)c12 (centres unmarked) [drawing 334] |  |  |  | 0.125 (≈ 0.297 µM) | 1 (≈ 2.38 µM) | 0.25 (≈ 0.595 µM) | 
COc1c(N2CCCC(CO)C2)c(F)cc2c(=O)c(C(=O)O)cn(C3CC3)c12 (centres unmarked) [drawing 335] |  |  |  | 0.03 (≈ 0.0768 µM) | 0.25 (≈ 0.64 µM) | 0.06 (≈ 0.154 µM) | 
COc1c(N2CCCC(O)(CO)C2)c(F)cc2c(=O)c(C(=O)O)cn(C3CC3)c12 (centres unmarked) [drawing 336] |  |  |  | 0.03 (≈ 0.0738 µM) | 1 (≈ 2.46 µM) | 0.5 (≈ 1.23 µM) | 
COc1c(N2CCC(O)C(C)C2)c(F)cc2c(=O)c(C(=O)O)cn(C3CC3)c12 (centres unmarked) [drawing 337] |  |  |  |  |  |  | Minimum Inhibitory Concentrations, H. influenzae HI-3542 (H. influenzae HI-3542): 0.03 µg/mL; Minimum Inhibitory Concentrations, E. coli MC4100 (E. coli MC4100): 0.25 µg/mL
COc1c(N2CCC(O)C(O)C2)c(F)cc2c(=O)c(C(=O)O)cn(C3CC3)c12 (centres unmarked) [drawing 338] |  |  |  | 0.008 (≈ 0.0204 µM) | 0.25 (≈ 0.637 µM) | 0.125 (≈ 0.319 µM) | 

SMILES | MIC (S. aureus UC-76) [µg/mL] | MIC (S pyogenes C203) [µg/mL] | MIC (E. faecalis MGH-2) [µg/mL] | MIC (H. influenzae HI-3542) [µg/mL] | MIC (E. coli MC4100) [µg/mL] | MIC (M. catarrhalis BC-3531) [µg/mL] | also measured
COc1c(N2CCCC(O)C2)c(F)cc2c(=O)c(C(=O)O)cn(C3CC3)c12 (centres unmarked) [drawing 339] |  |  |  | 0.002 (≈ 0.00531 µM) | 0.125 (≈ 0.332 µM) | 0.03 (≈ 0.0797 µM) | 
Cc1c(N2CCCC(O)C2)c(F)cc2c(=O)c(C(=O)O)cn(C3CC3)c12 (centres unmarked) [drawing 340] |  |  |  | 0.015 (≈ 0.0416 µM) | 0.125 (≈ 0.347 µM) | 0.03 (≈ 0.0832 µM) | 
Cc1c(N2CCCC(C)(O)C2)c(F)cc2c(=O)c(C(=O)O)cn(C3CC3)c12 (centres unmarked) [drawing 341] |  |  |  | 0.06 (≈ 0.16 µM) | 0.5 (≈ 1.34 µM) | 0.125 (≈ 0.334 µM) | 
COc1c(N2CCC3(CC2)OCCO3)c(F)cc2c(=O)c(C(=O)O)cn(C3CC3)c12 [drawing 343] | 0.015 (≈ 0.0358 µM) | 0.25 (≈ 0.597 µM) | 0.25 (≈ 0.597 µM) |  |  |  | 
Cc1c(N2CCC(CCO)CC2)c(F)cc2c(=O)c(C(=O)O)cn(C3CC3)c12 [drawing 345] | 0.004 (≈ 0.0103 µM) | 0.06 (≈ 0.154 µM) | 0.03 (≈ 0.0772 µM) |  |  |  | 
COc1c(N2CCC(C(O)CO)CC2)c(F)cc2c(=O)c(C(=O)O)cn(C3CC3)c12 (centres unmarked) [drawing 346] | 0.015 (≈ 0.0357 µM) | 0.25 (≈ 0.595 µM) | 0.25 (≈ 0.595 µM) |  |  |  | 
COc1c(N2CCC(O)(CO)CC2)c(F)cc2c(=O)c(C(=O)O)cn(C3CC3)c12 [drawing 347] | 0.015 (≈ 0.0369 µM) | 1 (≈ 2.46 µM) | 1 (≈ 2.46 µM) |  |  |  | 
COc1c(N2CCC(CO)CC2)c(F)cc2c(=O)c(C(=O)O)cn(C3CC3)c12 [drawing 348] | 0.015 (≈ 0.0384 µM) | 0.125 (≈ 0.32 µM) | 0.125 (≈ 0.32 µM) |  |  |  | 
Cc1c(N2CCC(O)C(C)(C)C2)c(F)cc2c(=O)c(C(=O)O)cn(C3CC3)c12 (centres unmarked) [drawing 349] | 0.25 (≈ 0.644 µM) | 8 (≈ 20.6 µM) | 8 (≈ 20.6 µM) |  |  |  | 
COc1c(N2CCC(O)C(C)(C)C2)c(F)cc2c(=O)c(C(=O)O)cn(C3CC3)c12 (centres unmarked) [drawing 350] | 0.015 (≈ 0.0371 µM) | 0.5 (≈ 1.24 µM) | 0.25 (≈ 0.618 µM) |  |  |  | 
COc1c(N2CCC(O)C(C)C2)c(F)cc2c(=O)c(C(=O)O)cn(C3CC3)c12 (centres unmarked) [drawing 351] |  | 0.25 (≈ 0.64 µM) | 0.125 (≈ 0.32 µM) |  |  |  | Minimum Inhibitory Concentrations, S. aureus UC-76 (S. aureus UC-76): 0.008 µg/mL
COc1c(N2CCC(O)(c3ccccc3)CC2)c(F)cc2c(=O)c(C(=O)O)cn(C3CC3)c12 [drawing 352] | 0.25 (≈ 0.553 µM) | 2 (≈ 4.42 µM) | 32 (≈ 70.7 µM) |  |  |  | 
COc1c(N2CCCC(C(O)CO)C2)c(F)cc2c(=O)c(C(=O)O)cn(C3CC3)c12 (centres unmarked) [drawing 353] | 1 (≈ 2.38 µM) | 2 (≈ 4.76 µM) | 8 (≈ 19 µM) |  |  |  | 
COc1c(N2CCCC(CO)C2)c(F)cc2c(=O)c(C(=O)O)cn(C3CC3)c12 (centres unmarked) [drawing 354] | 0.015 (≈ 0.0384 µM) | 0.25 (≈ 0.64 µM) | 0.125 (≈ 0.32 µM) |  |  |  | 
COc1c(N2CCCC(O)(CO)C2)c(F)cc2c(=O)c(C(=O)O)cn(C3CC3)c12 (centres unmarked) [drawing 355] | 0.06 (≈ 0.148 µM) | 2 (≈ 4.92 µM) | 1 (≈ 2.46 µM) |  |  |  | 
COc1c(N2CCC(O)C(C)C2)c(F)cc2c(=O)c(C(=O)O)cn(C3CC3)c12 (centres unmarked) [drawing 356] |  |  |  |  |  |  | Minimum Inhibitory Concentrations, S. aureus UC-76 (S. aureus UC-76): 0.0008 µg/mL; Minimum Inhibitory Concentrations, S pyogenes C203 (S pyogenes C203): 0.25 µg/mL; Minimum Inhibitory Concentrations, E. faecalis MGH-2 (E. faecalis MGH-2): 0.125 µg/mL
COc1c(N2CCC(O)C(O)C2)c(F)cc2c(=O)c(C(=O)O)cn(C3CC3)c12 (centres unmarked) [drawing 357] | 0.008 (≈ 0.0204 µM) | 0.125 (≈ 0.319 µM) | 0.125 (≈ 0.319 µM) |  |  |  | 
COc1c(N2CCCC(O)C2)c(F)cc2c(=O)c(C(=O)O)cn(C3CC3)c12 (centres unmarked) [drawing 358] | 0.03 (≈ 0.0797 µM) | 0.125 (≈ 0.332 µM) | 0.002 (≈ 0.00531 µM) |  |  |  | 
Cc1c(N2CCCC(O)C2)c(F)cc2c(=O)c(C(=O)O)cn(C3CC3)c12 (centres unmarked) [drawing 359] | 0.015 (≈ 0.0416 µM) | 0.125 (≈ 0.347 µM) | 0.125 (≈ 0.347 µM) |  |  |  | 
Cc1c(N2CCCC(C)(O)C2)c(F)cc2c(=O)c(C(=O)O)cn(C3CC3)c12 (centres unmarked) [drawing 360] |  | 0.03 (≈ 0.0801 µM) | 0.5 (≈ 1.34 µM) |  |  |  | 
